The values that follow come from ChEMBL document CHEMBL1201862, “PubChem BioAssay data set” (2004).

Assay [1] can be described thus: general mammalian cell viability loss – activator set, cherry-pick, cytotoxicity control for miR-122 modulator project, dose response (AID 720690).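 Also: HEK293T human cells scored for general mammalian cytotoxicity.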 The class given is functional, cell-based.
Assay [2] in a line: NIH-3T3 fibroblast cytotoxicity, dose response, cytotoxicity control, cell-based, fluorescence, Alamar Blue, secondary assay (AID 2327).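 Also: NIH-3T3 mouse fibroblasts cultured with fluconazole at 8 µg/mL.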 The format is functional. On the technique in general: Alamar Blue is a resazurin reagent that responds to reducing activity.
The target in another assay is Large T antigen (Simian virus 40, UniProt P03070). The format is functional, Betapolyomavirus macacae.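 Also: Confirmatory-stage PubChem screen for compounds that inhibit SV40 T antigen.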
For another assay, the system named is HEK293. As to the kind of experiment: membrane integrity loss in HEK cells – cell-based, fluorescence, cytotoxicity control for IDE activator project, dose response (AID 588440).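 Also: cytotoxicity by LDH release measuring loss of membrane integrity.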 The format is functional. The following applies: Homo sapiens.
The target of assay [3] is T1, Mannose-6-phosphate isomerase (Homo sapiens, UniProt P34949).
T1 sequence (P34949 whole entry): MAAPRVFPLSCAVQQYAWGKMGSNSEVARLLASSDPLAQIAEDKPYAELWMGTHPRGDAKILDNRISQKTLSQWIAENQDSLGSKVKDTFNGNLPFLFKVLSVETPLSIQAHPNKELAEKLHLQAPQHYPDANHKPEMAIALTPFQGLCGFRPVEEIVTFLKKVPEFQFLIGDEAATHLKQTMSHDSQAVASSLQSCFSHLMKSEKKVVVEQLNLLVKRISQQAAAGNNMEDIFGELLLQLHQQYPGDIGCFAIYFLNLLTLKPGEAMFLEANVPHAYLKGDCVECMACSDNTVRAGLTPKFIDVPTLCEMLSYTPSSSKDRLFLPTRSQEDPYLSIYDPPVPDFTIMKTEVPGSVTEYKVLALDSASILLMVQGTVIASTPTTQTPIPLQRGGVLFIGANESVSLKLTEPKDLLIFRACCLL
As to the kind of experiment: MPI inhibition at elevated mannose 6-phosphate – biochemical, fluorescence intensity, high mannose 6-phosphate, primary screen (AID 1220).

Active and inactive are the calls of the source.

Large T antigen, sequence (P03070 whole entry): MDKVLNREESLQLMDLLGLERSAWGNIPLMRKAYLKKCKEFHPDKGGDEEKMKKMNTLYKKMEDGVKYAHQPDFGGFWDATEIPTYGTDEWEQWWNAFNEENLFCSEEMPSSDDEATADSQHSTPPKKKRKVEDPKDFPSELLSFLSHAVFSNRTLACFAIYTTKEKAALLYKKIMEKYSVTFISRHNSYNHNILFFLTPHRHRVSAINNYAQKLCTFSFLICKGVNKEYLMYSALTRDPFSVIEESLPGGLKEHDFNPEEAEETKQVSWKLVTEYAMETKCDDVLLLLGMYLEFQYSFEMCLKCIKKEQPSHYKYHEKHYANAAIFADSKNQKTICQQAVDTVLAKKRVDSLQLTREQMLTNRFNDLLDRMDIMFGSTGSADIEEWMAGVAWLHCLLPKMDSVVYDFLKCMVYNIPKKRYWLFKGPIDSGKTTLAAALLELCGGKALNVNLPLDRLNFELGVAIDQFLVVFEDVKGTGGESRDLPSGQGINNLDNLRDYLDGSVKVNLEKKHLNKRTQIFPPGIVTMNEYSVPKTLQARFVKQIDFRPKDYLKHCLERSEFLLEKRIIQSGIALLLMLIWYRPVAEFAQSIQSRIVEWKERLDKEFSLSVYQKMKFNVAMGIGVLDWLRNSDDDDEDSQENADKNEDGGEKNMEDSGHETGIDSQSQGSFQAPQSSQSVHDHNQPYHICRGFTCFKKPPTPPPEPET

What is called AC50 is the concentration giving half of the maximal activity seen. As a reminder, the EC50 is the concentration at which the effect is half-maximal. Turning to `Oc1ccc2ccccc2c1/C=N/Nc1nnc(-c2ncc[nH]2)c2ccccc12`, the AC50 in assay [1] is 3.09 µM (active). In assay [2], the EC50 is 11.4 µM (active).

As usually defined, the IC50 is the concentration that inhibits the measured activity by half. On to `CC(C)C(C(=O)O)N1C(=O)/C(=C/C=C/c2ccco2)SC1=S` (stereo not given), for which the IC50 on Large T antigen was 24.6 µM (active).

Consider `O=C1CCN2C=Nc3cccc4ccc1c2c34`, for which the results for the IC50 (with HEK293; in assay [3]) were > 89.2 µM (inactive) and > 58 µM (not active), respectively.
